Source: US20110136141A1, “PEPTIDE REAGENTS AND METHOD FOR INHIBITING AUTOANTIBODY ANTIGEN BINDING” (Abbott Laboratories, priority 2009, published 2011)
The star is where a group is joined. Biotin = O=C1N[C@H]2[C@H](CS[C@H]2CCCCC(=O)*)N1

Tested on: endogenous antibodies to cardiac troponin-I (binding to recombinant human cardiac troponin-I)
Experiment: Inhibition of anti-cTnI autoantibody binding to cardiac troponin-I (microplate chemiluminescent immunoassay)
Protocol: Inhibitor working solutions: The peptides listed in Table 12 (obtained from Sigma-Genosys, PEPscreen custom library) were diluted in AxSYM® Troponin-I ADV Preincubation Diluent to give solutions ranging from 240 nmol/mL to 0 nmol/mL. An equimolar mixture of the peptides listed in Table 12 was prepared and diluted to give solutions ranging from 240 nmol/mL to 0 nmol/mL/.
Microplate preparation: Recombinant human cardiac troponin-I (cTnI, BiosPacific, Emeryville, Calif.) was coated on white high-binding flat-bottom 96-well polystyrene microplates (Costar) in phosphate buffer (100 μL, 0.2 M, pH 8, 4 μg/mL) at 38° C., for 1 h, then overcoated sequentially with bovine serum albumin and 2% wt/v sucrose in PBS.
Chemiluminescent detection conjugate: A murine anti-human IgG (subtype IgG2b, kappa;) was labeled with a chemiluminescent acridinium-9-carboxamide. This antibody recognized all human IgG subtypes while having no significant reactivity toward human IgM or IgA, or rabbit, sheep or goat IgG. […]
Chemiluminescent detection: The microplate was loaded into a Mithras microplate reader (Berthold Technologies Inc, Oak Ridge, Tenn.) equilibrated at 28° C. The chemiluminescence signal from each well was recorded for 2 s after the sequential addition of ARCHITECT® Pre-Trigger solution (100 μL) and ARCHITECT® Trigger solution (100 μL).

ratio of signal to the low control (S/LC): inhibition of the binding of endogenous antibodies to the cTnI antigen on the microplate (Example 1, FIG. 11, peptides of Table 12 ([Btn] amino-terminus), 240 to 0 nmol/mL, human serum sample mixed 1:1, overnight): greatest inhibition | ratio of signal to the low control (S/LC): inhibition of the binding of endogenous antibodies to the cTnI antigen on the microplate (Example 2, FIG. 12, peptides of Table 13 ([Ac] amino-terminus), procedure of Example 1): greatest inhibition
Substance: #5 (Biotin-ALSGMEGRKKKFES-NH2; SMILES CSCC[C@H](NC(=O)CNC(=O)[C@H](CO)NC(=O)[C@H](CC(C)C)NC(=O)[C@H](C)NC(=O)CCCC[C@@H]1SC[C@@H]2NC(=O)N[C@@H]21)C(=O)N[C@@H](CCC(=O)O)C(=O)NCC(=O)N[C@@H](CCCNC(=N)N)C(=O)N[C@@H](CCCCN)C(=O)N[C@@H](CCCCN)C(=O)N[C@@H](CCCCN)C(=O)N[C@@H](Cc1ccccc1)C(=O)N[C@@H](CCC(=O)O)C(=O)N[C@@H](CO)C(N)=O)
